Results: patent US11813236B2, “Substances for treatment of fatty liver-related conditions” (SCANDIBIO THERAPEUTICS AB, priority 2016, dated 2023)

How the values were obtained:
[1] = tested on: subjects with high HS; assay: Human study: supplementation of serine; assay type: in vivo
Procedure: 86 subjects with varying degrees of […] were recruited for studying the response of liver to the HS. Also, liver tissue samples from 12 morbidly obese subjects that underwent bariatric surgery were collected. The mRNA expression of the identified target genes was measured in liver of obese and healthy subjects. In order to show the effect of the serine on the liver, another six subjects were recruited and the subjects' characteristics before and after serine supplementation are presented in Table 3. Subjects included in the studies met all the criteria for NAFLD including exclusion of other chronic liver diseases such as viral hepatitis, risky alcohol consumption, metabolic disorders (e.g., hemochromatosis).
Magnetic resonance experiments were performed using three 1.5 T clinical imagers (1× Sonata and 2× Avanto, Siemens, Erlangen, Germany). Liver fat content was determined using proton magnetic resonance spectroscopy and subcutaneous abdominal and visceral fat was measured by magnetic resonance imaging (Adiels et al, 2006; Lundbom et al, 2011).
(§1) The effect of short-term dietary supplementation with serine on HS and fasting levels of Plasma markers of liver functions was assessed in six subjects with high. HS. Each patient received one oral dose of ˜20 g of L-serine (200 mg/kg) per day for 14 days.
as §1, with “To identify the unique contribution of serine supplementation in decreasing HS, the” for “The”, “plasma” for “Plasma”, “high” for “high.”

[2] = tested on: humans; settings: cited from earlier work
[3] = 200 mg/kg/day oral 14 days, six subjects

With `N[C@@H](CO)C(=O)O` [serine, L-serine] as the compound, how does the “Plasma level of ALP after supplementation (change in words)” value [1, 3] read?
Its value is “significantly decreased”.

And the “Plasma level of ALT after supplementation (change in words)” value [1, 3]?
The value was “significantly decreased”.

And the “Plasma level of AST after supplementation (change in words)” value [1, 3]?
The value was “significantly decreased”.

And the “Plasma ALT, response per subject” value ([1]; 200 mg/kg/day oral 14 days, six subjects, FIG. 5C panel H)?
The value was “consistently decreased in all six subjects”.

And the “Plasma AST, response per subject” value ([1]; 200 mg/kg/day oral 14 days, six subjects, FIG. 5C panel I)?
Its value is “consistently decreased in all six subjects”.

What about the “Plasma ALP, response per subject” value ([1]; 200 mg/kg/day oral 14 days, six subjects, FIG. 5C panel J) of the same compound?
The value was “decreased in five of the participating subjects”.

What about the “Plasma TGs, response per subject” value ([1]; 200 mg/kg/day oral 14 days, six subjects, FIG. 5C panel K, no change in the remaining one subject) of the same compound?
Its value is “decreased in five of the studied subjects”.

And the “Plasma level of serine after supplementation” value ([1]; 200 mg/kg/day oral 14 days, six subjects, change in words)?
Its value is “significantly increased”.

And the “Markers of liver function after supplementation” value ([1]; NAFLD patients, proof-of-concept human study)?
Its value is “significantly improved”.

What about the “HDL cholesterol” value ([1]; after serine, n = 6, 200 mg/kg/day oral 14 days, mean ± SD, baseline 1.00 ± 0.21, P 0.30) of the same compound?
The value was 1.02 ± 0.18 mmol/L.

And the HOMA-IR ([1]; after serine, n = 6, 200 mg/kg/day oral 14 days, mean ± SD, baseline 2.15 ± 1.85, P 0.18)?
The HOMA-IR was 1.54 ± 1.49.

What about the “LDL cholesterol” value ([1]; after serine, n = 6, 200 mg/kg/day oral 14 days, mean ± SD, baseline 3.68 ± 0.80, P 0.50) of the same compound?
The value was 3.85 ± 0.94 mmol/L.

And the “Total cholesterol” value ([1]; after serine, n = 6, 200 mg/kg/day oral 14 days, mean ± SD, baseline 6.23 ± 1.49, P 0.18)?
The value was 5.85 ± 1.15 mmol/L.

What about the “Fasting plasma glucose” value ([1]; after serine, n = 6, 200 mg/kg/day oral 14 days, mean ± SD, baseline 6.57 ± 1.41, P 0.25) of the same compound?
Its value is 6.33 ± 1.41 mmol/L.

What about the “Plasma triglycerides (TG)” value ([1]; after serine, n = 6, 200 mg/kg/day oral 14 days, mean ± SD, baseline 6.90 ± 6.65, P 0.13) of the same compound?
Its value is 3.63 ± 1.81 mmol/L.

What about the “Bilirubin” value ([1]; after serine, n = 6, 200 mg/kg/day oral 14 days, mean ± SD, baseline 7.33 ± 4.11, P 0.13) of the same compound?
Its value is 6.48 ± 3.94 µmol/L.

What about the “Fasting plasma insulin (FPI)” value ([1]; after serine, n = 6, 200 mg/kg/day oral 14 days, mean ± SD, baseline 46.3 ± 33.8, P 0.23) of the same compound?
The value was 34.7 ± 25.2 pmol/L.

And the “γ-Glutamyl transferase (μGT) (U/L)” value ([1]; after serine, n = 6, 200 mg/kg/day oral 14 days, mean ± SD, baseline 63.8 ± 12.9, P 0.30)?
Its value is 62.3 ± 16.3 U/L.

What about the “Liver fat (%)” value ([1]; after serine, n = 6, L-serine 200 mg/kg oral once per day for 14 days, mean ± SD, baseline 26.8 ± 6.0, P<0.05) of the same compound?
The value was 20.4 ± 7.0%.

And the “HS (hepatic steatosis) after serine supplementation (change in words)” value ([1]; magnetic resonance spectroscopy before and after, 200 mg/kg/day oral 14 days)?
Its value is “significantly decreased”.

And the “HS, response per patient” value ([1]; magnetic resonance spectroscopy, 200 mg/kg/day oral 14 days, six patients)?
The value was “decreased in all six patients”.

And the “Aspartate aminotransferase (AST) (U/L)” value ([1]; plasma, after serine, n = 6, 200 mg/kg/day oral 14 days, mean ± SD, baseline 34.5 ± 8.10, P<0.05)?
Its value is 27.4 ± 8.4 U/L.

What about the “Alanine aminotransferase (ALT) (U/L)” value ([1]; plasma, after serine, n = 6, 200 mg/kg/day oral 14 days, mean ± SD, baseline 50.8 ± 15.2, P<0.05) of the same compound?
Its value is 37.6 ± 5.3 U/L.

What about the “Alkaline phosphatase (ALP) (U/L)” value ([1]; plasma, after serine, n = 6, 200 mg/kg/day oral 14 days, mean ± SD, baseline 76.3 ± 17.2, P<0.05) of the same compound?
The value was 71.3 ± 17.9 U/L.

What about the “Relative decrease in HS” value ([1]; range over the six NAFLD patients, 200 mg/kg/day oral 14 days) of the same compound?
Its value is 1.0-23%.

What about the “Tolerability of the supplementation” value ([1]; ~20 g L-serine (200 mg/kg) oral once per day for 14 days, six subjects) of the same compound?
Its value is “well tolerated by all the subjects”.

What about the “Doses studied in humans and shown to be safe” value ([2]; serine, around 25-30 g/day) of the same compound?
The value was “up to 400 mg/kg/day”.

For `CC(=O)N[C@@H](CS)C(=O)O` [NAC, N-acetyl-L-cysteine, reference compound], which “Daily dosage shown to be safe in humans” value ([2]; NAC) is on record?
The value was 4-6 grams.
